ChEMBL document CHEMBL5465560, “Selectivity Literature for EUbOPEN Chemogenomic Library” (2024)

Legend:
[1] = molecular target: T1, Bone morphogenetic protein receptor type-2 (Homo sapiens) (UniProt Q13873); test: Selectivity interaction (Kinase panel (DSF assay)) EUB0001558a BMPR2
T1 sequence (whole entry): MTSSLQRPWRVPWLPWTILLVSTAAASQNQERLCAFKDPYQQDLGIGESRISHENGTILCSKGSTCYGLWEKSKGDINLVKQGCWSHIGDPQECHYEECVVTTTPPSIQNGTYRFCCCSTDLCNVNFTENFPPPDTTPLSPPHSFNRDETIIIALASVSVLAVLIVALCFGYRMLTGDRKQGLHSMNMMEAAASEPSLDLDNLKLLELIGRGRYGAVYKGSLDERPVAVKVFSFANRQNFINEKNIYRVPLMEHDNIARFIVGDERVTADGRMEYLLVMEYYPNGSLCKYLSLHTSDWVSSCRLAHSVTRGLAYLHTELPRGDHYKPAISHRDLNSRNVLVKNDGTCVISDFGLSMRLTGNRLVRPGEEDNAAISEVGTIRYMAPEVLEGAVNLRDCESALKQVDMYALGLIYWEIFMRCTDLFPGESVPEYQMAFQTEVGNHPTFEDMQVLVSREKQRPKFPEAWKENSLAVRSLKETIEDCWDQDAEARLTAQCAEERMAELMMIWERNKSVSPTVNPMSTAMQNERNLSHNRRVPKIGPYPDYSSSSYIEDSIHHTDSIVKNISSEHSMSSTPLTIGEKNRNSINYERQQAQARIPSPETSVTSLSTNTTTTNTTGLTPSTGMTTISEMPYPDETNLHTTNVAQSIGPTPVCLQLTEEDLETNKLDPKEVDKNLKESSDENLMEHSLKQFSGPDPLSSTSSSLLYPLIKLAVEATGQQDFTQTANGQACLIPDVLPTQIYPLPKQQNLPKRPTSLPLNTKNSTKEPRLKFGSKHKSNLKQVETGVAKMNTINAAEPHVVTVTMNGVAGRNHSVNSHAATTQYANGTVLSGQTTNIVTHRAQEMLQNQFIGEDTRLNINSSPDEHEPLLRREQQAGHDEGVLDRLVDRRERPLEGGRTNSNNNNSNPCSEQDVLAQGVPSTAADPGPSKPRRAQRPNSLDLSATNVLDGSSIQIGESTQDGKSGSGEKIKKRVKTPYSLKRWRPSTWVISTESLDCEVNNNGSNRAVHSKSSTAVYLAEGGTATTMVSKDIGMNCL

[2] = molecular target: Cyclin-dependent kinase 4 (Homo sapiens, UniProt P11802); test: Selectivity interaction (Kinase panel (33PanQinase(R) Activity Assay)) EUB0000877a CDK4
Sequence of Cyclin-dependent kinase 4 (P11802 whole entry): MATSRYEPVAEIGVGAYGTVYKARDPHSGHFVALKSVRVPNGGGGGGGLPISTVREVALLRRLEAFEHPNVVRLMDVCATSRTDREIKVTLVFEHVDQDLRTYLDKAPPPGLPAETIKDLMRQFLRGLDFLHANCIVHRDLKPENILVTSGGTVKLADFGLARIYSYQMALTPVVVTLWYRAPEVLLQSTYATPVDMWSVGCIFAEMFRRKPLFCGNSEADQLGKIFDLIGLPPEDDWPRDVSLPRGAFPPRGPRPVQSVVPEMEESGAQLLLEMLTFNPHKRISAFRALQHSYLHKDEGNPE

[3] = molecular target: Tyrosine-protein kinase JAK1 (Homo sapiens, UniProt P23458); test: Selectivity interaction (ActivX KiNativ screen (kinase selectivity in THP-1 cell lysates)) EUB0000639a JAK1; format: subcellular; details: lysate, at 5 µM
Sequence of Tyrosine-protein kinase JAK1 (P23458 whole entry): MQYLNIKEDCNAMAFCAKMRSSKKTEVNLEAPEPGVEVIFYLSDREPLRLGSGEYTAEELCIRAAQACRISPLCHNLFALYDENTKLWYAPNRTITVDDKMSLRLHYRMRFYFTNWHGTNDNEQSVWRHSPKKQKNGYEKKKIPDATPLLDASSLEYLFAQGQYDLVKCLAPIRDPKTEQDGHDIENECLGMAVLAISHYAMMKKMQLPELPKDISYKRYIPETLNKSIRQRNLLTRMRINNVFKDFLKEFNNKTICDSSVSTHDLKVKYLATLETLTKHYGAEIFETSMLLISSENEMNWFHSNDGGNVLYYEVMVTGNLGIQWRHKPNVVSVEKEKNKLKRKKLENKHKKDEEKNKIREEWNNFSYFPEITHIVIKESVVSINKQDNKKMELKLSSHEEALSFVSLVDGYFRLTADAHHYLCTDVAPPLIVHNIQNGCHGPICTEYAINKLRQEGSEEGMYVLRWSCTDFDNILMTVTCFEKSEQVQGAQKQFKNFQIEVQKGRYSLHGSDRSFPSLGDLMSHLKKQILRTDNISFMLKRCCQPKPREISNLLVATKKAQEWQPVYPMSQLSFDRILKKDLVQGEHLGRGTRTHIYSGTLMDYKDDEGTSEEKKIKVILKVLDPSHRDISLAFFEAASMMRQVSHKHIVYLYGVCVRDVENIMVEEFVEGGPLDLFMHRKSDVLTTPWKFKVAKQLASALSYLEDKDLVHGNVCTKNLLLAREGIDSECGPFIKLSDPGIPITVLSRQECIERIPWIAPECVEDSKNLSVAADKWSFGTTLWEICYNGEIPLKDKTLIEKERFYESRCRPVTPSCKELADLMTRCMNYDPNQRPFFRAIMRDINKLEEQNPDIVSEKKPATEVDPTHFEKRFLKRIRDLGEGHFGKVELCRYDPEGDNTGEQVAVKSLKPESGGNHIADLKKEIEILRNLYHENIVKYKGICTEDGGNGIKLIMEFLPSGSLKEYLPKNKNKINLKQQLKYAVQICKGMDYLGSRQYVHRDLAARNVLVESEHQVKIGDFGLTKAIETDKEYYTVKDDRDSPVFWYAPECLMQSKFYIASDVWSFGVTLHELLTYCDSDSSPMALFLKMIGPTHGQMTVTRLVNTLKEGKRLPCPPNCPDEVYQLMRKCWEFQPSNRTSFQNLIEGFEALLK

[4] = molecular target: T2, Tyrosine-protein kinase receptor TYRO3 (Homo sapiens) (UniProt Q06418); test: Selectivity interaction (SelectScreen profiling (Invitrogen)) EUB0000607a TYRO3; details: at 2 µM
T2 sequence (whole entry): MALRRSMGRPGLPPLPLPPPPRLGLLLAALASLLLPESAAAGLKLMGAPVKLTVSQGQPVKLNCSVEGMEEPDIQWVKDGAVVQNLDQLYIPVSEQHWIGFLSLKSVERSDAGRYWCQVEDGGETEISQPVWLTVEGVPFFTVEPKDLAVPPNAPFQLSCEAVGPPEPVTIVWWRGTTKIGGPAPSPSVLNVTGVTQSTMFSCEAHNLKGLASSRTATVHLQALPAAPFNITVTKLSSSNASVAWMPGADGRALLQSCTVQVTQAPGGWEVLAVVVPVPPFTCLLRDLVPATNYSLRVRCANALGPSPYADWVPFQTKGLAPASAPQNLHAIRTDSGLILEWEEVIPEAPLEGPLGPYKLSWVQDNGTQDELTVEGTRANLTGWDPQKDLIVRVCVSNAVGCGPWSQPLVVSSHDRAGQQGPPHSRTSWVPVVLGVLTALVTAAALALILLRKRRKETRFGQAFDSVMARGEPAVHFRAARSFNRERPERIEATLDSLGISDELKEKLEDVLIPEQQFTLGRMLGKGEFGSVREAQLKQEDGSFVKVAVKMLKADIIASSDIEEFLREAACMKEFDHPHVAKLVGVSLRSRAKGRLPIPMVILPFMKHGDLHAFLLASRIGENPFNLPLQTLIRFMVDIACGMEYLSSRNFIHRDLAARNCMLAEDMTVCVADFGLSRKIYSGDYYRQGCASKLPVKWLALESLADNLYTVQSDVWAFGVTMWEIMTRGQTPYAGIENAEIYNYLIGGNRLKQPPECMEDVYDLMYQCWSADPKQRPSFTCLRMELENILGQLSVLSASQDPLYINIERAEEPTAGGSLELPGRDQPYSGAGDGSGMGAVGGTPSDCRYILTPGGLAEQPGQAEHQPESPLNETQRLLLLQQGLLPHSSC

[5] = molecular target: T3, Tyrosine-protein kinase TXK (Homo sapiens) (UniProt P42681); test: Selectivity interaction (KinomeScan (DiscoverX)) EUB0000607a TXK; details: at 10 µM
T3 sequence (whole entry): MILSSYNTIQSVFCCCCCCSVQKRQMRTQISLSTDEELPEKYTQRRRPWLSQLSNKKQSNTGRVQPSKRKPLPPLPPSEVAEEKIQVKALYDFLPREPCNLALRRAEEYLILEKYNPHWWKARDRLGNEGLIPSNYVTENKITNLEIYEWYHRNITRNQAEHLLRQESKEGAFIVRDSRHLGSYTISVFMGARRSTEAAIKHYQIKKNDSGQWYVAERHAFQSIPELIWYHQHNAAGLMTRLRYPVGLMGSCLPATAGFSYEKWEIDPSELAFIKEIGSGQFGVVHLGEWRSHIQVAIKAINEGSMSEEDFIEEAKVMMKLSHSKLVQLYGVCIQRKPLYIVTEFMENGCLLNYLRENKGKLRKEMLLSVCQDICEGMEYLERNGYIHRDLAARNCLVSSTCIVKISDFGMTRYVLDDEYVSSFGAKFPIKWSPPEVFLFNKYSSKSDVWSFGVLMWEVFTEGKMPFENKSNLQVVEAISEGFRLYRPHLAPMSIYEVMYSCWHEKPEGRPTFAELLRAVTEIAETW

With `CC(C)(O)[C@H](F)CN1Cc2cc(NC(=O)c3cnn4cccnc34)c(N3CCOCC3)cc2C1=O` the dTM [1] was 2.1 K.

`CCC(=O)N1CC[C@H](Nc2ncnc3c2CN(c2cnc(OC)c(C(F)(F)F)c2)CC3)C1` [LENIOLISIB] was tested, and the IC50 [2] was over 10 µM.

In the case of `CC[C@@H]1[C@H](F)C(=O)N[C@@H]1COc1nccc2cc(C(N)=O)c(OC)cc12` [ZIMLOVISERTIB], the % of inhibition [3] is reported as -5.3%.

Work on `CNC(=O)Nc1ccc(-c2nc(N3CC4CCC(C3)O4)c3cnn(C4CCC5(CC4)OCCO5)c3n2)cc1` yielded a % of inhibition [4] of 9% and a % of control [5] of 94%.
